Reference: patent US20260209152A1, “Substituted Hydroxystilbene Compounds and Derivatives, Synthesis and Uses Thereof” (Kynan Duke IP, LLC, priority 2019, published 2026)
Where two headings read alike, the source gives them in different places.

Legend:
Pancreatic CAPAN-1 = assay: CellTiter Glo cell viability assay; format: cell-based; conditions: Homo sapiens; Capan-1/HTB-79; 11 dilutions 3-0.00001 μM
Kidney Caki-1 = assay: CellTiter Glo cell viability assay; format: cell-based, human; conditions: Homo sapiens
Procedure, shortened: (§1)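 Cells seeded at 1.7*10^3/well in quadruplicate; compounds at 18 two-fold dilutions from 5 μM (0.000038146-5 μM), or at 1, 2, 5, 10 and 20 μM. CellTiter Glo luminescence read on days 1, 3 and 5 after treatment. IC50 by nonlinear regression of luminescence versus log dose.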

Osteosarcomas SAOS-2 = assay: CellTiter Glo cell viability assay; format: cell-based, human; conditions: Homo sapiens
Procedure, shortened: as §1

Pancreatic BxPC3 = assay: CellTiter Glo cell viability assay; format: cell-based, human; conditions: Homo sapiens
Procedure, shortened: as §1

Tongue UPCI: SCC090 = assay: CellTiter Glo cell viability assay; format: cell-based, human; conditions: Homo sapiens
Procedure, shortened: as §1

Bladder HT-1197 = assay: CellTiter Glo cell viability assay; format: cell-based, human; conditions: Homo sapiens
Procedure, shortened: as §1

Lung NCI-H2126 = assay: CellTiter Glo cell viability assay; format: cell-based, human; conditions: Homo sapiens
Procedure, shortened: as §1

Liver SNU-423 = assay: CellTiter Glo cell viability assay; format: cell-based, human; conditions: Homo sapiens
Procedure, shortened: as §1

Bladder UMUC_3 = assay: CellTiter Glo cell viability assay; format: cell-based, human; conditions: Homo sapiens
Procedure, shortened: as §1

Bladder SCABER = assay: CellTiter Glo cell viability assay; format: cell-based, human; conditions: Homo sapiens
Procedure, shortened: as §1

Pancreatic PANC-1 = assay: CellTiter Glo cell viability assay; format: cell-based, human; conditions: Homo sapiens
Procedure, shortened: as §1

Rhabomyosarcoma TE 159.T = assay: CellTiter Glo cell viability assay; format: cell-based, human; conditions: Homo sapiens, 72 h; 3 Days of treatment; 18 2-fold dilutions 5-0.00003 μM; read-out: Average IC50
Procedure, shortened: as §1

Pancreatic HPAFII = assay: CellTiter Glo cell viability assay; format: cell-based, human; conditions: Homo sapiens
Procedure, shortened: as §1

Liver SNU-398 = assay: CellTiter Glo cell viability assay; format: cell-based, human; conditions: Homo sapiens
Procedure, shortened: as §1

Tongue SCC-4 = assay: CellTiter Glo cell viability assay; format: cell-based, human; conditions: Homo sapiens
Procedure, shortened: as §1

Lung NCI-H1573 = assay: CellTiter Glo cell viability assay; format: cell-based, human; conditions: Homo sapiens
Procedure, shortened: as §1

Pharynx DETROIT = assay: CellTiter Glo cell viability assay; format: cell-based, human; conditions: Homo sapiens
Procedure, shortened: as §1

Lung NCI-H1563 = assay: CellTiter Glo cell viability assay; format: cell-based, human; conditions: Homo sapiens
Procedure, shortened: as §1

Kidney Caki-2 = assay: CellTiter Glo cell viability assay; format: cell-based, human; conditions: Homo sapiens
Procedure, shortened: as §1

GBM patient sample BNB04 = assay: Ex vivo GBM 3D spheroid drug response (CellTiter-Glo 3D); format: cell-based, human; conditions: Homo sapiens, 96 h, 3D spheroids; 4 days post drug treatment
Source text: This project involves an ex vivo drug response screen for 3 ROKiT Pharma test agents and Temozolomide in 3 previously dissociated and cryopreserved GBM samples.
• 2.1 Three previously processed GBM patient samples were chosen to be used in this study.

[1] = 72 h, 3 Days of treatment, 18 2-fold dilutions 5-0.00003 μM, read-out: Average IC50

COc1cc(/C=C/c2cc(O)cc(OC)c2CC=C(C)C)ccc1O [Compound 1, (E)-3-(4-hydroxy-3-methoxystyryl)-5-methoxy-4-(3-methylbut-2-en-1-yl)phenol]
IC50 (Pancreatic CAPAN-1): 2670 nM
IC50 (Kidney Caki-1; CAKI-1, 72 h, 3 Days of treatment, 18 2-fold dilutions 5-0.00003 μM, read-out: Average IC50): 103 nM
IC50 (Kidney Caki-1; Caki-1/HTB-46, 11 dilutions 3-0.00001 μM, read-out: IC50): 120 nM
IC50 (Osteosarcomas SAOS-2; SAOS-2, 72 h, 3 Days of treatment, 18 2-fold dilutions 5-0.00003 μM, read-out: Average IC50): 110 nM
IC50 (Osteosarcomas SAOS-2; Saos-2/HTB-85, 11 dilutions 3-0.00001 μM, read-out: IC50): 173 nM
IC50 (Pancreatic BxPC3; BXPC-3, 72 h, 3 Days of treatment, 18 2-fold dilutions 5-0.00003 μM, read-out: Average IC50): 1060 nM
IC50 (Pancreatic BxPC3; BxPC-3/CRL-1687, 11 dilutions 3-0.00001 μM, read-out: IC50): 944 nM
IC50 (Tongue UPCI: SCC090; [1]): 90.1 nM
IC50 (Tongue UPCI: SCC090; UPCI: SCC090/CRL-3239, 11 dilutions 3-0.00001 μM, read-out: IC50): 0.9 nM
IC50 (Bladder HT-1197; HT1197, 72 h, 3 Days of treatment, 18 2-fold dilutions 5-0.00003 μM, read-out: Average IC50): 258 nM
IC50 (Bladder HT-1197; HT1197, HT-1197/CRL-1473, 11 dilutions 3-0.00001 μM, read-out: IC50): 108 nM
IC50 (Lung NCI-H2126; NCI-H2126, 72 h, 3 Days of treatment, 18 2-fold dilutions 5-0.00003 μM, read-out: Average IC50): 75.4 nM
IC50 (Lung NCI-H2126; NCI-H2126/CCL-256, 11 dilutions 3-0.00001 μM, read-out: IC50): 106 nM
IC50 (Liver SNU-423; SNU-423, 72 h, 3 Days of treatment, 18 2-fold dilutions 5-0.00003 μM, read-out: Average IC50): 33.8 nM
IC50 (Liver SNU-423; SNU-423/CRL-2238, 11 dilutions 3-0.00001 μM, read-out: IC50): 203 nM
IC50 (Bladder UMUC_3; UMUC3, 72 h, 3 Days of treatment, 18 2-fold dilutions 5-0.00003 μM, read-out: Average IC50): 31.3 nM
IC50 (Bladder UMUC_3; UMUC3, UM-UC-3/CRL-1749, 11 dilutions 3-0.00001 μM, read-out: IC50): 333 nM
IC50 (Bladder SCABER; SCaBER, 72 h, 3 Days of treatment, 18 2-fold dilutions 5-0.00003 μM, read-out: Average IC50): 33.7 nM
IC50 (Bladder SCABER; SCaBER/HTB-3, 11 dilutions 3-0.00001 μM, read-out: IC50): 65 nM
IC50 (Pancreatic PANC-1; PANC-1, 72 h, 3 Days of treatment, 18 2-fold dilutions 5-0.00003 μM, read-out: Average IC50): 107 nM
IC50 (Pancreatic PANC-1; PANC-1/CRL-1469, 11 dilutions 3-0.00001 μM, read-out: IC50): 110 nM
IC50 (Rhabomyosarcoma TE 159.T): 147 nM
IC50 (Pancreatic HPAFII; HPAF-II, 72 h, 3 Days of treatment, 18 2-fold dilutions 5-0.00003 μM, read-out: Average IC50): 1070 nM
IC50 (Pancreatic HPAFII; HPAF-II/CRL-1997, 11 dilutions 3-0.00001 μM, read-out: IC50): 417 nM
IC50 (Liver SNU-398; SNU-398, 72 h, 3 Days of treatment, 18 2-fold dilutions 5-0.00003 μM, read-out: Average IC50): 42.9 nM
IC50 (Liver SNU-398; SNU-398/CRL-2233, 11 dilutions 3-0.00001 μM, read-out: IC50): 208 nM
IC50 (Tongue SCC-4; SCC-4, 72 h, 3 Days of treatment, 18 2-fold dilutions 5-0.00003 μM, read-out: Average IC50): 100 nM
IC50 (Tongue SCC-4; SCC-4/CRL-1624, 11 dilutions 3-0.00001 μM, read-out: IC50): 39.5 nM
IC50 (Lung NCI-H1573; NCI-H1573, 72 h, 3 Days of treatment, 18 2-fold dilutions 5-0.00003 μM, read-out: Average IC50): 217 nM
IC50 (Lung NCI-H1573; NCI-H1573/CRL-5877, 11 dilutions 3-0.00001 μM, read-out: IC50): 273 nM
IC50 (Pharynx DETROIT; [1]): 1170 nM
IC50 (Pharynx DETROIT; Detroit 562/CCL-138, 11 dilutions 3-0.00001 μM, read-out: IC50): 131 nM
IC50 (Lung NCI-H1563; NCI-H1563, 72 h, 3 Days of treatment, 18 2-fold dilutions 5-0.00003 μM, read-out: Average IC50): 449 nM
IC50 (Lung NCI-H1563; NCI-H1563/CRL-5875, 11 dilutions 3-0.00001 μM, read-out: IC50): 184 nM
IC50 (Kidney Caki-2; CAKI-2, 72 h, 3 Days of treatment, 18 2-fold dilutions 5-0.00003 μM, read-out: Average IC50): 1120 nM
IC50 (Kidney Caki-2; Caki-2/HTB-47, 11 dilutions 3-0.00001 μM, read-out: IC50): 426 nM
IC50 (GBM patient sample BNB04): 10900 nM
